In ChEMBL document CHEMBL5465560, “Selectivity Literature for EUbOPEN Chemogenomic Library” (2024):
Values belong to the compound of their own block, whether it stands above or below them.

Key:
[1] = biological target: Protein kinase C theta type (Homo sapiens, UniProt Q04759); experiment: Selectivity interaction (Ambit KINOMEscan and KiNATiv profiling in Jurkat cells) EUB0000090b PRKCQ; assay type: cell-based; conditions: at 1 µM
[2] = biological target: Ribosomal protein S6 kinase beta-2 (Homo sapiens) (UniProt Q9UBS0); experiment: Selectivity interaction (ActivX KiNativ screen (kinase selectivity in THP-1 cell lysates)) EUB0000639a RPS6KB2; assay type: subcellular; conditions: lysate
Chain of Ribosomal protein S6 kinase beta-2 (Homo sapiens) (Q9UBS0 whole entry): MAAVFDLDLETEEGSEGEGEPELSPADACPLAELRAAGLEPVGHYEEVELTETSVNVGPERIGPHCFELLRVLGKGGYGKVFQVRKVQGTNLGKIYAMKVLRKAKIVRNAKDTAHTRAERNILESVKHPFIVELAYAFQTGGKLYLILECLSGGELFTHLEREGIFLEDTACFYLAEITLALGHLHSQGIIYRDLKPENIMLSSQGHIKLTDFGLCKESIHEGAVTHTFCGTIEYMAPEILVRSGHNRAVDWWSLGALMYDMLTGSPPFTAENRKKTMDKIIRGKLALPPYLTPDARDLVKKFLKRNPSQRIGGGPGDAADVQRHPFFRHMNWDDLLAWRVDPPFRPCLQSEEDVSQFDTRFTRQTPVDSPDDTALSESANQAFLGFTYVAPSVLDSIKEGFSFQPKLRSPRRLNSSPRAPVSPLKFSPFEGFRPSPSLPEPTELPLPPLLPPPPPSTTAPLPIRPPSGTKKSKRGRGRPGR

[3] = biological target: T1, Serine/threonine-protein kinase TAO3 (Homo sapiens) (UniProt Q9H2K8); experiment: Selectivity interaction (KinomeScan (DiscoverX)) EUB0000229b TAOK3; conditions: at 10 µM
T1 sequence (whole entry): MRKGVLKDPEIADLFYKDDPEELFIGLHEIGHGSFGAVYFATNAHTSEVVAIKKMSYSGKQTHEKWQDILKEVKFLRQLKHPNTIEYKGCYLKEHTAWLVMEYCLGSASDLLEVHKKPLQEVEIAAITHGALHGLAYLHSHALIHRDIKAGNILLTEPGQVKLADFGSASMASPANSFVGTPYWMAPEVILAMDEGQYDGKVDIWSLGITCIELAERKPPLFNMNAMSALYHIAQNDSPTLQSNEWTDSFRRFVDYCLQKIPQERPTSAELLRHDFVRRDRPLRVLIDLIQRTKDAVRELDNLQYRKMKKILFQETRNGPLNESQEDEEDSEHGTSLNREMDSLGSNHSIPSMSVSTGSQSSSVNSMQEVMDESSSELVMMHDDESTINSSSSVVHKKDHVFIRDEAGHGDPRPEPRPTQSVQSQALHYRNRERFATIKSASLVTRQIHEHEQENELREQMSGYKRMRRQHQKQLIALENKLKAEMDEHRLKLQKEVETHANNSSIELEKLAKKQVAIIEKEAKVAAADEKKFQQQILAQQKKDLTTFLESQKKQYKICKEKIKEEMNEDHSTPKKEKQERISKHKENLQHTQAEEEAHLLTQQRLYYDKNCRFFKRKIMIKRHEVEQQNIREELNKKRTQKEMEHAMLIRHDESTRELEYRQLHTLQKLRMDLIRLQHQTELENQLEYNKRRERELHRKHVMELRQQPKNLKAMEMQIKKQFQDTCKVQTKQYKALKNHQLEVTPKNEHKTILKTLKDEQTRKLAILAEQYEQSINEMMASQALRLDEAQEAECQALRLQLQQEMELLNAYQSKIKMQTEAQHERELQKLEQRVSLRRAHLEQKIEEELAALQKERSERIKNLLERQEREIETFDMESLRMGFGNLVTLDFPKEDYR

[4] = biological target: Sigma non-opioid intracellular receptor 1 (Homo sapiens) (UniProt Q99720); experiment: Selectivity interaction (GPCR panel (PDSP screen)) EUB0001079a SIGMAR1; conditions: at 10 µM
Chain of Sigma non-opioid intracellular receptor 1 (Homo sapiens) (Q99720 whole entry): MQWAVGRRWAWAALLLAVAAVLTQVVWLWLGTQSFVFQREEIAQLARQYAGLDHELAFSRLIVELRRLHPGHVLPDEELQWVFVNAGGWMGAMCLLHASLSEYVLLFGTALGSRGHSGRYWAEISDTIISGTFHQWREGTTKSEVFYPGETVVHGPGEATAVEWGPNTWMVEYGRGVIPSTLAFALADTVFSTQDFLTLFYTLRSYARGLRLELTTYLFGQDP

[5] = biological target: Ephrin type-A receptor 5 (Homo sapiens) (UniProt P54756); experiment: Selectivity interaction (KinomeScan (DiscoverX)) EUB0000092b EPHA5; conditions: at 10 µM
Chain of Ephrin type-A receptor 5 (Homo sapiens) (P54756 whole entry): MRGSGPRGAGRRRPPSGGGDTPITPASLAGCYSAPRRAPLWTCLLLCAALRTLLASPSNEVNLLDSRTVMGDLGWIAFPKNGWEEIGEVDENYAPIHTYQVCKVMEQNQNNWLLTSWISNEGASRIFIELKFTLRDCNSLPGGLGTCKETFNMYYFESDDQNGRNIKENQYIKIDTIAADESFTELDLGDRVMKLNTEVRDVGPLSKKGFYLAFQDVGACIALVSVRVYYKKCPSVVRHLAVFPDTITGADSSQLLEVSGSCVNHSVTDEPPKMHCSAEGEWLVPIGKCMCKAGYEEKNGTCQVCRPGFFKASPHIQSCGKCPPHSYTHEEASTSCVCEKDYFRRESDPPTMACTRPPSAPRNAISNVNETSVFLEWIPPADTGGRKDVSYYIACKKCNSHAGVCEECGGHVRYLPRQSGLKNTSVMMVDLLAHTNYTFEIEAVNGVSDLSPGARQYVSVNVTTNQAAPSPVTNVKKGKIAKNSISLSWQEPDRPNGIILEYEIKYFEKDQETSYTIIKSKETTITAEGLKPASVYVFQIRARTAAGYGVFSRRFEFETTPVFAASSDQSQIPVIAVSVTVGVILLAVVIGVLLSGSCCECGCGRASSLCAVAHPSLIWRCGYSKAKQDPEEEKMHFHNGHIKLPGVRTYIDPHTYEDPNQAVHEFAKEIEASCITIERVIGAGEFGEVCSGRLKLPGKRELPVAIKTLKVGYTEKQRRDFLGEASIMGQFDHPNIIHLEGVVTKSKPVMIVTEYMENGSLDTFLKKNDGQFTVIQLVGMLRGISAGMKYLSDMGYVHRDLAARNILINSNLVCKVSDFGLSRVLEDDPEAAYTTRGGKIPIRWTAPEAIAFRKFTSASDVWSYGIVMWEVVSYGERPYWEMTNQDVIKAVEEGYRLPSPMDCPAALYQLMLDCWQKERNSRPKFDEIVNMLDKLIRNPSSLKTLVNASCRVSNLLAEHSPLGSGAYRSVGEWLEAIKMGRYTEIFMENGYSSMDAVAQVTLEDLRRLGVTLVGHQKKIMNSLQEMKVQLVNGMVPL

[6] = biological target: Activin receptor type-1-like (Homo sapiens) (UniProt P37023); experiment: Selectivity interaction (KinomeScan (DiscoverX)) EUB0000045b ACVRL1
Chain of Activin receptor type-1-like (Homo sapiens) (P37023 whole entry): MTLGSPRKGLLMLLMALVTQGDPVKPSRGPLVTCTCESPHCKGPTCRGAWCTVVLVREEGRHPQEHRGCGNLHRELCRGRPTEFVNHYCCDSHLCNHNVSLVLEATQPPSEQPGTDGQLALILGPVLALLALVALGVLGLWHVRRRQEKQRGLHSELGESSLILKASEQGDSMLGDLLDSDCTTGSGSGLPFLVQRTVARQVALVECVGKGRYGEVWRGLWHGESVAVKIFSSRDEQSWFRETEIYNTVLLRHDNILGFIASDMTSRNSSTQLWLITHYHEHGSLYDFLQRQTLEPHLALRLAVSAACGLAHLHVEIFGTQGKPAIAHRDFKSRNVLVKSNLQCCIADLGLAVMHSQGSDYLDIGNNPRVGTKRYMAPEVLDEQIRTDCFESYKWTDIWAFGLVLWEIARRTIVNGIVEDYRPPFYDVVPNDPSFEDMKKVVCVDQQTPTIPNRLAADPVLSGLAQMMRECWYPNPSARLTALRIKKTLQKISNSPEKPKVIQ

[7] = biological target: T2, Myotonin-protein kinase (Homo sapiens) (UniProt Q09013); experiment: Selectivity interaction (KinomeScan (DiscoverX)) EUB0000655a DMPK; conditions: at 10 µM
T2 sequence (whole entry): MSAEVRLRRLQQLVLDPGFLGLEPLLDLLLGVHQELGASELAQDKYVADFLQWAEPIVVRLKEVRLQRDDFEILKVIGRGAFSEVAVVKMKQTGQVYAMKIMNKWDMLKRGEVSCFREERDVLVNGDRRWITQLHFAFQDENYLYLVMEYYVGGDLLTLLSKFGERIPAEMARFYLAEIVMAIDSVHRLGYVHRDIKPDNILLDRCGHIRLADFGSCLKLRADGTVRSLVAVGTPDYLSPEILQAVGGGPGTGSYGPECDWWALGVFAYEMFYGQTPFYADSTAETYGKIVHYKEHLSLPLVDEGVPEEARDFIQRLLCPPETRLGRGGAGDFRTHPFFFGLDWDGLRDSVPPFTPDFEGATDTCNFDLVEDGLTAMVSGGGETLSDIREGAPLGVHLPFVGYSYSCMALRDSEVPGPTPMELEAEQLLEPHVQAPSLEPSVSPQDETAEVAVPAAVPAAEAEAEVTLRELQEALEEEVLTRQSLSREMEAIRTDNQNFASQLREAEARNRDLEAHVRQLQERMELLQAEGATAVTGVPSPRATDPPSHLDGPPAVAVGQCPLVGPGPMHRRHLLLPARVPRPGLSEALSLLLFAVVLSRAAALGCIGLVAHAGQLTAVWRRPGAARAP

[8] = biological target: Calcium/calmodulin-dependent protein kinase type II subunit gamma (Homo sapiens) (UniProt Q13555); experiment: Selectivity interaction (ActivX KiNativ screen (ex vivo kinase selectivity in human PBMCs)) EUB0001619a CAMK2G; assay type: cell-based; conditions: PBMC, at 1 µM
Chain of Calcium/calmodulin-dependent protein kinase type II subunit gamma (Homo sapiens) (Q13555 whole entry, the tested form may be a part): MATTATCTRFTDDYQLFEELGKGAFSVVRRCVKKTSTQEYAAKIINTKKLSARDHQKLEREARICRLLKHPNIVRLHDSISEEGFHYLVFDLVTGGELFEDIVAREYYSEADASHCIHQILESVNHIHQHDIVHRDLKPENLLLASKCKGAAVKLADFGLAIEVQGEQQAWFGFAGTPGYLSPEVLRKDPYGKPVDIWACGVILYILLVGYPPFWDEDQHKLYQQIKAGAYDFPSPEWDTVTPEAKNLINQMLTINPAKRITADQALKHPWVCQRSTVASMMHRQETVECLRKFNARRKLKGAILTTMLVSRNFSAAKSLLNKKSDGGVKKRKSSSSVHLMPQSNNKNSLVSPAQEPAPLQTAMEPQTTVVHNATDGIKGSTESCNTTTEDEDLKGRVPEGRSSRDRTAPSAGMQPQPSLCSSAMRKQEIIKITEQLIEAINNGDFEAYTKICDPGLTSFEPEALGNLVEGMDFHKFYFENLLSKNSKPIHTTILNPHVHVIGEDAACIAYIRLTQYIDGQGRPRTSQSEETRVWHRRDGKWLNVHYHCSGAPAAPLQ

[9] = biological target: LIM domain kinase 1 (Homo sapiens) (UniProt P53667); experiment: Selectivity interaction (KinomeScan (DiscoverX)) EUB0000666a LIMK1; conditions: at 10 µM
Chain of LIM domain kinase 1 (Homo sapiens) (P53667 whole entry, looked up, the tested form may be a part, canonical isoform): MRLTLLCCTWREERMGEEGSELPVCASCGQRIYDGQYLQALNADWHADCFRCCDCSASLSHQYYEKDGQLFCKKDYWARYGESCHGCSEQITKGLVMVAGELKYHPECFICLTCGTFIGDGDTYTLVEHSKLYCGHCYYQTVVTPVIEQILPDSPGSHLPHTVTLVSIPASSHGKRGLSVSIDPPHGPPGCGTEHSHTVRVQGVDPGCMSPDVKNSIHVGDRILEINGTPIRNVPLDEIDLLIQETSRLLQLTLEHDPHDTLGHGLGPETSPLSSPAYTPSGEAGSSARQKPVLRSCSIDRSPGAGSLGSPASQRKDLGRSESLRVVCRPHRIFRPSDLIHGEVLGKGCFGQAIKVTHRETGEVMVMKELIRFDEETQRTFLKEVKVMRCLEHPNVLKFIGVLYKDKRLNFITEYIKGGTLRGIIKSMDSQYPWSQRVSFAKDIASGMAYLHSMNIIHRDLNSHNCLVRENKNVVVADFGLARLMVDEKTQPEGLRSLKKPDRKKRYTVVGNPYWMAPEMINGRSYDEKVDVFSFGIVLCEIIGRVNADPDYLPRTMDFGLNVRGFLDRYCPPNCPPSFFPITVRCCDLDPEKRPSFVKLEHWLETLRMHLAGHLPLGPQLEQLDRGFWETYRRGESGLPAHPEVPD

[10] = biological target: Casein kinase I isoform gamma-1 (Homo sapiens) (UniProt Q9HCP0); experiment: Selectivity interaction (KinomeScan (DiscoverX)) EUB0000666a CSNK1G1; conditions: at 10 µM
Chain of Casein kinase I isoform gamma-1 (Homo sapiens) (Q9HCP0 whole entry, looked up, canonical isoform): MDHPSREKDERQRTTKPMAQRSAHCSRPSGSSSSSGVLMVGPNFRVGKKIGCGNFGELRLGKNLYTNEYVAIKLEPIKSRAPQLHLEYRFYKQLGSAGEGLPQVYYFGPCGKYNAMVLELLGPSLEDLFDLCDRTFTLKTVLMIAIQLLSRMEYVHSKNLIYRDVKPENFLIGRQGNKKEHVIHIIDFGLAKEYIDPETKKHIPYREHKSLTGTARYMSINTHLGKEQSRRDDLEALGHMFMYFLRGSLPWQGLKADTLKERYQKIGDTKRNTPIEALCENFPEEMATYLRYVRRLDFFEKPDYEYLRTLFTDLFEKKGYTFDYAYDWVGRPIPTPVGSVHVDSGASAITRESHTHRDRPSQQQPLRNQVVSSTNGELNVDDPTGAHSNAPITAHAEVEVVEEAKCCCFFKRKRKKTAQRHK

Chain of Protein kinase C theta type (Q04759 whole entry, looked up): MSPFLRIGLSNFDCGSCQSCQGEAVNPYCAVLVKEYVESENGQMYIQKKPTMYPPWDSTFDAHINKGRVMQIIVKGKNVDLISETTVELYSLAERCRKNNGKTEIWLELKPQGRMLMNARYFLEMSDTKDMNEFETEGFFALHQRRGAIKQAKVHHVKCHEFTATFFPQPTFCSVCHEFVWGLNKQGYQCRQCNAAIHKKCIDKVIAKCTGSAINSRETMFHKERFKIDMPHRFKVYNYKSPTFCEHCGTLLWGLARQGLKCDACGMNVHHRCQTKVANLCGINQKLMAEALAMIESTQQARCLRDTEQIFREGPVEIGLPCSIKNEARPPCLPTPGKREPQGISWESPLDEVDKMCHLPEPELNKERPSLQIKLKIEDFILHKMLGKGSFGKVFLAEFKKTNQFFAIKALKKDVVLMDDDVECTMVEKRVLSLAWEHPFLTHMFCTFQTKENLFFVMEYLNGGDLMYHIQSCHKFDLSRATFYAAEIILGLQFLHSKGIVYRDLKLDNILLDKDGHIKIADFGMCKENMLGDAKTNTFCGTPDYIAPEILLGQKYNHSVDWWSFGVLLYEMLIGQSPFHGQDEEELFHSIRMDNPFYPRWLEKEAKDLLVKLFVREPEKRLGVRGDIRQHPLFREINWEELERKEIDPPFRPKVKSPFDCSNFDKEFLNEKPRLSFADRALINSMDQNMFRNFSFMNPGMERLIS

SMILES: CN(C)C/C=C/C(=O)Nc1ccc(C(=O)N2CCCC(Nc3ncc(Cl)c(-c4c[nH]c5ccccc45)n3)C2)cc1 (stereo not given)
% of control [1]: 100%

% of inhibition ([2]; at 0.01 µM): -0.4%
% of inhibition ([2]; at 0.04 µM): 9.9%
% of inhibition ([2]; at 0.2 µM): -6.2%
% of inhibition ([2]; at 1 µM): -5.5%
% of inhibition ([2]; at 5 µM): 3.9%
SMILES: CC[C@@H]1[C@H](F)C(=O)N[C@@H]1COc1nccc2cc(C(N)=O)c(OC)cc12 [ZIMLOVISERTIB]

SMILES: COc1cc(N(C)c2ccnc3ccc(C(F)(F)F)cc23)cc(OC)c1OC
% binding [3]: 80%

SMILES: Nc1cnc(N2CCc3cc(S(=O)(=O)Nc4c(F)cc(Cl)cc4F)cc(N4CCCC4=O)c32)nc1 [TP-020n]
% of inhibition [4]: -14.4%

SMILES: CCC(=O)N1CCN(c2ccc(-n3c(=O)ccc4cnc5ccc(-c6cnc7ccccc7c6)cc5c43)cc2C(F)(F)F)CC1
% of control [5]: 100%

SMILES: C=CC(=O)Nc1cc(-n2c(=O)ccc3cnc4ccc(-c5ccc(NS(C)(=O)=O)cc5)cc4c32)ccc1C
% of control ([6]; at 1 µM): 100%
% of control ([6]; at 10 µM): 75%

SMILES: CN(C)CCOc1ccc(-c2nc(-c3ccncc3)c(-c3ccc4c(c3)CC/C4=N\O)[nH]2)cc1
% of control [7]: 100%

SMILES: N#Cc1cccc(-c2c[nH]c3ncnc(N4CCOCC4)c23)c1
% of inhibition [8]: -12%

SMILES: O=C(NOC[C@H](O)CO)c1ccc(F)c(F)c1Nc1ccc(I)cc1F
% of control [9]: 68%
% of control [10]: 61%
